Assay results as given in patent US12227513B2, “Salt and crystalline form of furopyrimidine compound and pharmaceutical use thereof” (TIUMBIO CO., LTD., priority 2018, dated 2025).
Counter-ions that a name gives are not always drawn.

Legend:
Format in all cases: physicochemical
[1] = Chemical purity after standing at 80° C. (HPLC; lactam-based related substances and main compound); conditions: for Increase in related substances: After 20 hours at 80° C., peak area of lactam-based related substances relative to main compound (HPLC); for Residual amount of main compound: After 21 days at 80° C., HPLC
Procedure: (§1) Each of the salts (dibesylate salt, dihydrochloride salt, sodium salt, potassium salt) prepared in the above examples was left to stand at 80° C. for 20 hours, and then an amount of change in related substances was measured. In addition, each of the salts was left to stand at 80° C. for 21 days, and then a residual amount of the main compound (compound of Formula 1) was measured. For measurement of the related substances and the main compound, samples were taken before and after exposure to 80° C., dissolved in a diluted solution at a concentration of 1 mg/mL, and then subjected to high-performance liquid chromatography (HPLC). From the resulting data, an increase in related substances was calculated by measuring a peak area of lactam-based related substances relative to a peak area of the main compound. In addition, for comparison, the same test was also carried out for the free base of the compound of Formula 1.

[2] = Hygroscopicity (weight increase after 1 week at 25° C. and 60% or 90% relative humidity); conditions: weight increase relative to the initial weight
Procedure: Each of the salts (dibesylate salt, dihydrochloride salt, dioxalate salt, sodium salt, potassium salt) prepared in the above examples was left to stand at 25° C. and 60% or 90% relative humidity for 1 week, and a hygroscopicity thereof was measured. Here, the hygroscopicity was measured as a percentage of weight increase, which was measured after the hygroscopicity test, relative to the initial weight.

[3] = Evaluation of stability of crystal form (PXRD after drying in vacuo at 50° C.); conditions: after being dried in vacuo at 50° C.
Procedure: The solid product (crystalline form A) obtained in Example 1 was subjected to powder X-ray diffraction (PXRD). The results are shown in FIG. 1 and Table 8 below. • Instrument: Maker Bruker AXS, D8 FOCUS • Conditions: 40 kV, 30 mA, 2θ/θ scan range of 3° to 50°
The solid product (crystalline form A) obtained in Example 1 was dried in vacuo at 50° C., and then subjected to powder X-ray diffraction as described above. The results are illustrated in FIG. 4.
On the other hand, using 1,4-dioxane as a solvent, a solid product (crystalline form B) was obtained in a similar manner as in Example 1, and subjected to powder X-ray diffraction as described above.

[4] = Physical state of the product as obtained (foam, moistening); conditions: observation in words
Source text: First, the compound of Formula 1 was not solidified, which posed great difficulty in controlling a residual solvent.

[5] = Water solubility (distilled water at 25° C., HPLC); conditions: supersaturated solution
Procedure: The water solubility was obtained as follows. Each of the free base and the dibesylate salt was dissolved in distilled water at 25° C. to make it supersaturated. Then, the solution was taken and diluted 20-fold with a diluent for dissolution. Then, the resultant was subjected to high-performance liquid chromatography (HPLC). In the resulting data, the dissolved amount was calculated from a peak area of the main compound.

[6] = Chemical purity after storage for 3 months at 40° C. and 75% relative humidity (HPLC)
Procedure: as §1
In addition, in a similar manner, the dibesylate salt prepared in the above example was stored for 3 months (at 40° C. and 75% relative humidity), and amounts of change in lactam-based related substances and main compound were measured.

[7] = Stability of drug product (oral capsule, 50° C. and 80% humidity for 3 weeks, HPLC); conditions: 50° C. and 80% relative humidity for 3 weeks
Procedure: Using each of the salts (dibesylate salt, dihydrochloride salt, sodium salt, potassium salt) prepared in the above examples, a drug product was prepared in the form of an oral capsule with the excipient composition as shown in Table 6 below. The drug product was left to stand at 50° C. and 80% humidity for 3 weeks, and then an amount of change in related substances was measured. For measurement of related substances, the contents were separated from the capsule, and then all of them were placed in a diluted solution so that the active ingredient was brought to a concentration of 1 mg/mL. Shaking was performed for 5 minutes. The supernatant was taken and filtered. The filtrate was taken and subjected to high-performance liquid chromatography (HPLC).
From the resulting data, percentages of a peak area of the main compound (active ingredient) and a peak area of the lactam-based related substances were measured. In addition, for comparison, the same test was also carried out for the free base of the compound of Formula 1.

[8] = After 3 months at 40° C. and 75% relative humidity

Row | SMILES | Increase in related substances [1] [%] | Residual amount of main compound [1] [%] | Hygroscopicity ([2]; 60% RH) [wt %] | Hygroscopicity ([2]; 90% RH) [wt %] | further results
1 | O=C(O)CCCN[C@@H](Cn1c(=O)c2c(n(Cc3c(F)cccc3C(F)(F)F)c1=O)COC21CCN(Cc2ccc(C(F)(F)F)o2)CC1)c1ccccc1 [Sodium salt] | 0.6 | 77.0 | 8.7 | 35 | –
2 | O=C(O)CCCN[C@@H](Cn1c(=O)c2c(n(Cc3c(F)cccc3C(F)(F)F)c1=O)COC21CCN(Cc2ccc(C(F)(F)F)o2)CC1)c1ccccc1 [Dioxalate salt] | – | – | 3.5 | 19 | –
3 | O=C(O)CCCN[C@@H](Cn1c(=O)c2c(n(Cc3c(F)cccc3C(F)(F)F)c1=O)COC21CCN(Cc2ccc(C(F)(F)F)o2)CC1)c1ccccc1 [crystalline form B] | – | – | – | – | Stability of crystal structure (PXRD) [3]: did not maintain some of its initial crystal structure
4 | O=C(O)CCCN[C@@H](Cn1c(=O)c2c(n(Cc3c(F)cccc3C(F)(F)F)c1=O)COC21CCN(Cc2ccc(C(F)(F)F)o2)CC1)c1ccccc1 [diphosphate salt, reference compound] | – | – | – | – | Moistening of the product obtained in the form of a foam [4]: easily moistened and turned into a sticky oil form
5 | O=C(O)CCCN[C@@H](Cn1c(=O)c2c(n(Cc3c(F)cccc3C(F)(F)F)c1=O)COC21CCN(Cc2ccc(C(F)(F)F)o2)CC1)c1ccccc1 [Free base, (R)-4-((2-(1-(2-fluoro-6-(trifluoromethyl)benzyl)-2,4-dioxo-1′-((5-(trifluoromethyl)furan-2-yl)methyl)-1H-spiro[furo[3,4-d]pyrimidine-5,4′-piperidine]-3 (2H,4H,7H)-yl)-1-phenylethyl)amino)butanoic acid] | 79.0 | 1.4 | – | – | Increase in related substances ([1]; listed as free base): about 79%; Moistening of the product obtained in the form of a foam [4]: easily moistened and turned into a sticky oil form; Water solubility (25° C.) [5]: 0.19 mg/mL; Water solubility (25° C.) ([5]; listed as free base): low water solubility
6 | O=C(O)CCCN[C@@H](Cn1c(=O)c2c(n(Cc3c(F)cccc3C(F)(F)F)c1=O)COC21CCN(Cc2ccc(C(F)(F)F)o2)CC1)c1ccccc1 [Dibesylate salt] | 0.0 | 99.6 | 0.06 | 0.9 | Chemical purity: Related substances [6, 8]: 0.03%; Chemical purity: main compound (Dibesylate salt) [6, 8]: 99.6%; Chemical purity: Related substances ([6]; Initial): 0.02%; Chemical purity: main compound (Dibesylate salt) ([6]; Initial): 99.7%; Stability of drug product (in words) [7]: very good stability; Increase in related substances ([1]; listed as dibesylate salt): did not generate any related substances; Hygroscopicity ([2]; 90% RH, listed as dibesylate salt): very low hygroscopicity; Water solubility (25° C.) [5]: 25.77 mg/mL; Water solubility (25° C.) ([5]; listed as dibesylate salt): greatly improved water solubility; Stability of crystal structure (PXRD) ([3]; listed as crystalline form A): maintained the same crystal structure as its initial one
7 | O=C(O)CCCN[C@@H](Cn1c(=O)c2c(n(Cc3c(F)cccc3C(F)(F)F)c1=O)COC21CCN(Cc2ccc(C(F)(F)F)o2)CC1)c1ccccc1 [Potassium salt] | 0.4 | 72.6 | 9.2 | 38 | –
8 | O=C(O)CCCN[C@@H](Cn1c(=O)c2c(n(Cc3c(F)cccc3C(F)(F)F)c1=O)COC21CCN(Cc2ccc(C(F)(F)F)o2)CC1)c1ccccc1 [Dihydrochloride salt] | 0.9 | 69.4 | 2.1 | 16 | –
